Measured values reported in patent US20230210999A1, “TARGETED PROTEASE DEGRADATION (TED) PLATFORM” (EUBULUS BIOTHERAPEUTICS INC., priority 2020, published 2023).
Read-outs that look alike come from different tables or passages of the source.

Tests used:
Assay type in all cases: cell-based, human
MV4;11 cells = experiment: Cell proliferation experiment (Alamar blue, 72 h), MV4;11; details: Homo sapiens
Description: (§1) Reagents: RPMI-1640 medium, McCoy's 5A medium, IMDM medium, MEM medium, L-15 medium, fetal bovine serum. Penicillin-Streptomycin double antibody, trypsin, etc., 2-mercaptoethanol, NEAA, pyruvate, etc.
(§2) The cells were cultured in conventional ways, and the cells should be passed at least 2 generations before plating. Cells at the logarithmic growth phase were collected, prepared into single cell suspensions and counted. The concentration of cells was adjusted to the desired concentration, and cells were inoculated into a 96-well cell culture plate at 100 μl per well. 100 μL of complete medium of the test compound were added to each well, set up 2 duplicate wells for each concentration, and diluted with a 5-fold gradient, and continued to culture for 72 h. All cells were subjected to IC50 test for corresponding samples. The experimental results are shown in Test Example 4.
(§3) The fluorescence intensity of each well was detected using the Alarm blue method, and IC50 was calculated.
(§4) IC50 was calculated according to the following formula:
(§5) Y=Max+(Min−Max)/[1+(X/IC50)×Slope]
(§6) wherein Min, Max and Slope represent the minimum, maximum and slope respectively.

Daudi cells = experiment: Cell proliferation experiment, Daudi; details: Homo sapiens, Daudi, Daudi cells; read-out: Inhibitory activity IC50 on Daudi
Description: as §1, §2, §3, §4, §5, §6

NCIH82 cells = experiment: Cell proliferation experiment, NCI-H82; details: Homo sapiens, NCI-H82, NCI-H82 cells; read-out: Inhibitory activity IC50 on NCI-H82
Description: as §1, §2, §3, §4, §5, §6

[1] = MV4-11, MV4;11 cells, read-out: Inhibitory activity IC50 on MV4;11

Structure (SMILES)	IC50 (MV4;11 cells; MV4-11, 72 h, MV4;11 cells, 72 h, read-out: Inhibitory activity IC50 of tested compounds on MV4;11 cells)	IC50 (MV4;11 cells; [1])	IC50 (Daudi cells)	IC50 (NCIH82 cells)
O=C1CCC(N2Cc3c(C#CCNCCOCCOCCOCCNC(=O)[C@H]4CC[C@H](Oc5cccc(Cl)c5F)CC4Cc4cccc(Nc5nccs5)n4)cccc3C2=O)C(=O)N1 (some centres unmarked) [Compound 860]	> 1000 nM	–	–	–
O=C1CCC(N2Cc3cc(NC(=O)CCOCCOCCOCCNC(=O)[C@]4(Cc5cccc(Nc6nccs6)n5)CC[C@@H](Oc5cccc(Cl)c5F)CC4)ccc3C2=O)C(=O)N1 (some centres unmarked) [UB-180948]	–	10 to 100 nM	> 1000 nM	> 1000 nM
O=C1CCC(N2Cc3c(NC(=O)CCOCCOCCN[C@H]4CC[C@@H](NC(=O)c5ccc(Nc6ncc7c(n6)-c6ccc(Cl)cc6C(c6c(F)cccc6F)=NC7)cc5)CC4)cccc3C2=O)C(=O)N1 (some centres unmarked) [UB-180959]	–	100 to 1000 nM	> 1000 nM	> 1000 nM
O=C1CCC(N2Cc3cc(NC(=O)CCOCCOCCN[C@H]4CC[C@@H](NC(=O)c5ccc(Nc6ncc7c(n6)-c6ccc(Cl)cc6C(c6c(F)cccc6F)=NC7)cc5)CC4)ccc3C2=O)C(=O)N1 (some centres unmarked) [UB-180960]	–	100 to 1000 nM	> 1000 nM	> 1000 nM
CCNC(=O)C#Cc1ccc2c(c1)NC(=O)/C2=C(\Nc1ccc(CNCCOCCOCCOCCOCC(=O)Nc2cccc3c2CN(C2CCC(=O)NC2=O)C3=O)cc1)c1ccccc1 (centres unmarked) [UB-180962]	–	100 to 1000 nM	> 1000 nM	> 1000 nM
CCNC(=O)C#Cc1ccc2c(c1)NC(=O)/C2=C(\Nc1ccc(CNCCOCCOCCOCCOCC(=O)Nc2ccc3c(c2)CN(C2CCC(=O)NC2=O)C3=O)cc1)c1ccccc1 (centres unmarked) [UB-180963]	–	10 to 100 nM	> 1000 nM	> 1000 nM
CCNC(=O)C#Cc1ccc2c(c1)NC(=O)/C2=C(\Nc1ccc(CNCCOCCOCCC(=O)Nc2cccc3c2CN(C2CCC(=O)NC2=O)C3=O)cc1)c1ccccc1 (centres unmarked) [UB-180964]	–	100 to 1000 nM	> 1000 nM	> 1000 nM
O=C1CCC(N2Cc3cc(C#CCCNCCOCCOCCOCCn4cc(-c5ccc(Nc6ncc7c(n6)-c6ccc(Cl)cc6C(c6c(F)cccc6F)=NC7)cc5)nn4)ccc3C2=O)C(=O)N1 (centres unmarked) [UB-180965]	–	100 to 1000 nM	> 1000 nM	100 to 1000 nM
O=C1CCC(N2Cc3c(C#CCCOCCN[C@H]4CC[C@@H](n5cc(-c6ccc(Nc7ncc8c(n7)-c7ccc(Cl)cc7C(c7c(F)cccc7F)=NC8)cc6)nn5)CC4)cccc3C2=O)C(=O)N1 (some centres unmarked) [UB-180966]	–	> 1000 nM	> 1000 nM	> 1000 nM
CCNC(=O)C#Cc1ccc2c(c1)NC(=O)/C2=C(\Nc1ccc(CNCCOCCOCCOCCC(=O)N[C@H](C(=O)N2C[C@H](O)C[C@H]2C(=O)NCc2ccc(-c3scnc3C)cc2)C(C)(C)C)cc1)c1ccccc1 [UB-180970]	–	100 to 1000 nM	> 1000 nM	> 1000 nM
CCNC(=O)C#Cc1ccc2c(c1)NC(=O)/C2=C(\Nc1ccc(CNCCOCCOCCOCCC(=O)Nc2cccc3c2CN(C2CCC(=O)NC2=O)C3=O)cc1)c1ccccc1 (centres unmarked) [UB-180971]	–	100 to 1000 nM	> 1000 nM	> 1000 nM
O=C1CCC(N2Cc3cc(C#CCCNCCOCCOCCOCCn4cc([C@]5(Cc6cccc(Nc7nccs7)n6)CC[C@@H](Oc6cccc(Cl)c6F)CC5)nn4)ccc3C2=O)C(=O)N1 (some centres unmarked) [UB-180973]	–	100 to 1000 nM	> 1000 nM	> 1000 nM
O=C1CCC(N2Cc3c(C#CCCNCCOCCOCCOCCn4cc(-c5ccc(Nc6ncc7c(n6)-c6ccc(Cl)cc6C(c6c(F)cccc6F)=NC7)cc5)nn4)cccc3C2=O)C(=O)N1 (centres unmarked) [UB-180974]	–	100 to 1000 nM	> 1000 nM	> 1000 nM
O=C1CCC(N2Cc3c(C#CCCOCCN[C@H]4CC[C@H](n5cc(-c6ccc(Nc7ncc8c(n7)-c7ccc(Cl)cc7C(c7c(F)cccc7F)=NC8)cc6)nn5)CC4)cccc3C2=O)C(=O)N1 (some centres unmarked) [UB-180975]	–	> 1000 nM	> 1000 nM	> 1000 nM
NC(=O)c1ccccc1Nc1nc(Nc2ccc(C3CCN(C(=O)NCCCNCCCC#Cc4ccc5c(c4)CN(C4CCC(=O)NC4=O)C5=O)CC3)cc2)ncc1Cl (centres unmarked) [UB-181207]	–	–	> 1000 nM	> 1000 nM

Other lines, results leading:

IC50 (MV4;11 cells; MV4-11, 72 h, MV4;11 cells, 72 h, read-out: Inhibitory activity IC50 of tested compounds on MV4;11 cells)	IC50 (MV4;11 cells; [1])	IC50 (Daudi cells)	IC50 (NCIH82 cells)	Structure (SMILES)
–	10 to 100 nM	10 to 100 nM	–	CC[C@@H]1C(=O)N(C)c2cnc(Nc3ccc(-c4cn(CCCOCCCNCCC#Cc5cccc6c5CN(C5CCC(=O)NC5=O)C6=O)nn4)cc3OC)nc2N1C1CCCC1 (some centres unmarked) [UB-180938]
–	100 to 1000 nM	> 1000 nM	> 1000 nM	O=C1CCC(N2Cc3c(C#CCCNCCOCCn4cc(-c5ccc(Nc6ncc7c(n6)-c6ccc(Cl)cc6C(c6c(F)cccc6F)=NC7)cc5)nn4)cccc3C2=O)C(=O)N1 (centres unmarked) [UB-180944]
–	100 to 1000 nM	> 1000 nM	> 1000 nM	O=C1CCC(N2Cc3c(NC(=O)CNCCOCCN4CCC(n5cc(-c6ccc(Nc7ncc8c(n7)-c7ccc(Cl)cc7C(c7c(F)cccc7F)=NC8)cc6)nn5)CC4)cccc3C2=O)C(=O)N1 (centres unmarked) [UB-180945]
–	100 to 1000 nM	> 1000 nM	100 to 1000 nM	O=C1CCC(N2Cc3c(C#CCCNCCCOCCCn4cc(-c5ccc(Nc6ncc7c(n6)-c6ccc(Cl)cc6C(c6c(F)cccc6F)=NC7)cc5)nn4)cccc3C2=O)C(=O)N1 (centres unmarked) [UB-180946]
–	10 to 100 nM	100 to 1000 nM	> 1000 nM	O=C1CCC(N2Cc3cc(NC(=O)CCOCCOCCOCCNC(=O)c4ccc(Nc5ncc6c(n5)-c5ccc(Cl)cc5C(c5c(F)cccc5F)=NC6)cc4)ccc3C2=O)C(=O)N1 (centres unmarked) [UB-180947]
–	100 to 1000 nM	> 1000 nM	100 to 1000 nM	CCNC(=O)C#Cc1ccc2c(c1)NC(=O)/C2=C(\Nc1ccc(CNCCOCCOCCC(=O)N[C@H](C(=O)N2C[C@H](O)C[C@H]2C(=O)NCc2ccc(-c3scnc3C)cc2)C(C)(C)C)cc1)c1ccccc1 [UB-180951]
–	> 1000 nM	> 1000 nM	> 1000 nM	CCNC(=O)C=C(Cl)c1ccc2c(c1)NC(=O)/C2=C(\Nc1ccc(CNCCOCCOCCOCCOCCC(=O)Nc2cccc3c2CN(C2CCC(=O)NC2=O)C3=O)cc1)c1ccccc1 (centres unmarked) [UB-180952]
–	100 to 1000 nM	> 1000 nM	> 1000 nM	O=C1CCC(N2Cc3cc(NC(=O)CNCCOCCOCCOCCNC(=O)[C@]4(Cc5cccc(Nc6nccs6)n5)CC[C@@H](Oc5cccc(Cl)c5F)CC4)ccc3C2=O)C(=O)N1 (some centres unmarked) [UB-180953]
–	100 to 1000 nM	> 1000 nM	> 1000 nM	O=C1CCC(N2Cc3cc(NC(=O)CNCCOCCOCCOCCNC(=O)c4ccc(Nc5ncc6c(n5)-c5ccc(Cl)cc5C(c5c(F)cccc5F)=NC6)cc4)ccc3C2=O)C(=O)N1 (centres unmarked) [UB-180954]
–	100 to 1000 nM	> 1000 nM	> 1000 nM	CCNC(=O)C#Cc1ccc2c(c1)NC(=O)/C2=C(\Nc1ccc(CNCCOCCOCCOCCOCCC(=O)N[C@H](C(=O)N2C[C@H](O)C[C@H]2C(=O)NCc2ccc(-c3scnc3C)cc2)C(C)(C)C)cc1)c1ccccc1 [UB-180955]
–	100 to 1000 nM	> 1000 nM	> 1000 nM	CCNC(=O)C#Cc1ccc2c(c1)NC(=O)/C2=C(\Nc1ccc(CNCCOCCOCCOCCOCCC(=O)Nc2cccc3c2CN(C2CCC(=O)NC2=O)C3=O)cc1)c1ccccc1 (centres unmarked) [UB-180956]
–	100 to 1000 nM	> 1000 nM	> 1000 nM	CCNC(=O)C#Cc1ccc2c(c1)NC(=O)/C2=C(\Nc1ccc(CNCCOCCOCCOCCOCC(=O)N[C@H](C(=O)N2C[C@H](O)C[C@H]2C(=O)NCc2ccc(-c3scnc3C)cc2)C(C)(C)C)cc1)c1ccccc1 [UB-180958]
–	100 to 1000 nM	100 to 1000 nM	> 1000 nM	CCNC(=O)C#Cc1ccc2c(c1)NC(=O)/C2=C(\Nc1ccc(CNCCOCCOCCC(=O)Nc2ccc3c(c2)CN(C2CCC(=O)NC2=O)C3=O)cc1)c1ccccc1 (centres unmarked) [UB-180967]
–	< 10 nM	100 to 1000 nM	–	CC[C@@H]1C(=O)N(C)c2cnc(Nc3ccc(-c4nnc(C5CCC(NCCOCCC#Cc6cccc7c6CN(C6CCC(=O)NC6=O)C7=O)CC5)o4)cc3OC)nc2N1C1CCCC1 (some centres unmarked) [UB-180968]
–	10 to 100 nM	100 to 1000 nM	–	CC[C@@H]1C(=O)N(C)c2cnc(Nc3ccc(-c4cn(CCOCCOC[C@@H](N)CC#Cc5cccc6c5CN(C5CCC(=O)NC5=O)C6=O)nn4)cc3OC)nc2N1C1CCCC1 (some centres unmarked) [UB-180969]
–	10 to 100 nM	100 to 1000 nM	100 to 1000 nM	CCNC(=O)C#Cc1ccc2c(c1)NC(=O)/C2=C(\Nc1ccc(CNCCOCCOCCOCCC(=O)Nc2ccc3c(c2)CN(C2CCC(=O)NC2=O)C3=O)cc1)c1ccccc1 (centres unmarked) [UB-180972]
–	< 10 nM	10 to 100 nM	–	CC[C@@H]1C(=O)N(C)c2cnc(Nc3ccc(-c4cn([C@H]5CC[C@@H](NCCCCCC#Cc6ccc7c(c6)CN(C6CCC(=O)NC6=O)C7=O)CC5)nn4)cc3OC)nc2N1C1CCCC1 (some centres unmarked) [UB-180984]
–	< 10 nM	< 10 nM	–	CC[C@@H]1C(=O)N(C)c2cnc(Nc3ccc(C(=O)N[C@H]4CC[C@@H](NCCCCCC#Cc5ccc6c(c5)CN(C5CCC(=O)NC5=O)C6=O)CC4)cc3OC)nc2N1C1CCCC1 (some centres unmarked) [UB-180985]
–	–	100 to 1000 nM	100 to 1000 nM	NC(=O)c1ccccc1Nc1nc(Nc2ccc(C3CCN(C(=O)NCCCCNCCC#Cc4ccc5c(c4)CN(C4CCC(=O)NC4=O)C5=O)CC3)cc2)ncc1Cl (centres unmarked) [UB-181206]
–	–	10 to 100 nM	100 to 1000 nM	NC(=O)c1ccccc1Nc1nc(Nc2ccc(N3CCN(C(=O)NCCCCNCCC#Cc4ccc5c(c4)CN(C4CCC(=O)NC4=O)C5=O)CC3)cc2)ncc1Cl (centres unmarked) [UB-181208]
